Measured values from PubChem BioAssay AID1963962 (Molecular Pharmacology Branch, DTP, NCI, 2024).

System: 967376-340-R-J2-PDC multicell spheroid viability
Experiment: Anticancer human tumor 967376-340-R-J2-PDC patient-derived colon adenocarcinoma cell line growth inhibition [PI3K]
Conditions: for IC50: curve of first compound; for viability, T/C: stronger effect = lower value
In short: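 Spheroid viability read-out. Co-cultures contained the tumor line plus HUVEC and human MSCs. Each agent was paired with a PI3K inhibitor (inavolisib, alpelisib, duvelisib, copanlisib) across half-log dilutions starting at clinical Cmax, or at 10 microM when Cmax was unknown.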

[1] = second compound 0.00316 µM, first compound 0.0316 µM
[2] = second compound 0.00316 µM, first compound 0.1 µM
[3] = second compound 0.00316 µM, first compound 0.316 µM
[4] = second compound 0.00316 µM, first compound 1 µM
[5] = second compound 0.00316 µM, first compound 3.16 µM
[6] = second compound 0.00316 µM, first compound 10 µM
[7] = second compound 0.01 µM, first compound 0.0316 µM
[8] = second compound 0.01 µM, first compound 0.1 µM
[9] = second compound 0.01 µM, first compound 0.316 µM
[10] = second compound 0.01 µM, first compound 1 µM
[11] = second compound 0.01 µM, first compound 3.16 µM
[12] = second compound 0.01 µM, first compound 10 µM
[13] = second compound 0.0316 µM, first compound 0.0316 µM
[14] = second compound 0.0316 µM, first compound 0.1 µM
[15] = second compound 0.0316 µM, first compound 0.316 µM
[16] = second compound 0.0316 µM, first compound 1 µM
[17] = second compound 0.0316 µM, first compound 3.16 µM
[18] = second compound 0.0316 µM, first compound 10 µM
[19] = second compound 0.1 µM, first compound 0.0316 µM
[20] = second compound 0.1 µM, first compound 0.1 µM
[21] = second compound 0.1 µM, first compound 0.316 µM
[22] = second compound 0.1 µM, first compound 1 µM
[23] = second compound 0.1 µM, first compound 3.16 µM
[24] = second compound 0.1 µM, first compound 10 µM
[25] = second compound 0.316 µM, first compound 0.0316 µM
[26] = second compound 0.316 µM, first compound 0.1 µM
[27] = second compound 0.316 µM, first compound 0.316 µM
[28] = second compound 0.316 µM, first compound 1 µM
[29] = second compound 0.316 µM, first compound 3.16 µM
[30] = second compound 0.316 µM, first compound 10 µM
[31] = second compound 1 µM, first compound 0.0316 µM
[32] = second compound 1 µM, first compound 0.1 µM
[33] = second compound 1 µM, first compound 0.316 µM
[34] = second compound 1 µM, first compound 1 µM
[35] = second compound 1 µM, first compound 3.16 µM
[36] = second compound 1 µM, first compound 10 µM
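Further: spheroids exposed to agents for 7 days before read-out.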
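Wherever viability, T/C is given: luminescence used as surrogate of cell viability.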

With `CC(Cn1ccc(-c2ccc(C#N)c(Cl)c2)n1)NC(=O)c1cc(C(C)O)[nH]n1` (stereo not drawn) + CC(Nc1ccc2c(c1)OCCn1cc(N3C(=O)OCC3C(F)F)nc1-2)C(N)=O the IC50 (second compound 0.00316 µM) was > 10 µM, the IC50 (second compound 0.01 µM) was > 10 µM and the IC50 (second compound 0.0316 µM) was > 10 µM. The IC50 (second compound 0.1 µM) was > 10 µM, the IC50 (second compound 0.316 µM) was > 10 µM and the IC50 (second compound 1 µM) was > 10 µM. It also gave a viability, T/C [1] of 109%, a viability, T/C [2] of 112% and a viability, T/C [3] of 126%. The viability, T/C [4] was 93.5%, the viability, T/C [5] was 125% and the viability, T/C [6] was 105%. It also gave a viability, T/C [7] of 115%, a viability, T/C [8] of 78.3% and a viability, T/C [9] of 126%. The viability, T/C [10] was 101%, the viability, T/C [11] was 102% and the viability, T/C [12] was 117%. The viability, T/C [13] was 82.6%, the viability, T/C [14] was 104% and the viability, T/C [15] was 101%. The viability, T/C [16] was 97.1%, the viability, T/C [17] was 93.7% and the viability, T/C [18] was 84.8%. The viability, T/C [19] was 84.5%, the viability, T/C [20] was 74.1% and the viability, T/C [21] was 75%. For the same molecule, the viability, T/C [22] was 83.9%, the viability, T/C [23] was 85.2% and the viability, T/C [24] was 67.4%. The viability, T/C [25] was 75.7%, the viability, T/C [26] was 72.3% and the viability, T/C [27] was 76.4%. It also gave a viability, T/C [28] of 62.4%, a viability, T/C [29] of 69.4% and a viability, T/C [30] of 78.2%. The viability, T/C [31] was 59.8%, the viability, T/C [32] was 54% and the viability, T/C [33] was 66.7%. It also gave a viability, T/C [34] of 51%, a viability, T/C [35] of 61.2% and a viability, T/C [36] of 60.2%.
For `CCN1CCN(Cc2ccc(Nc3ncc(F)c(-c4cc(F)c5nc(C)n(C(C)C)c5c4)n3)nc2)CC1` + CC(Nc1ccc2c(c1)OCCn1cc(N3C(=O)OCC3C(F)F)nc1-2)C(N)=O, the IC50 (second compound 0.00316 µM) was > 1 µM, the IC50 (second compound 0.01 µM) was > 1 µM and the IC50 (second compound 0.0316 µM) was > 1 µM. For the same molecule, the IC50 (second compound 0.1 µM) was 0.793 µM, the IC50 (second compound 0.316 µM) was 0.109 µM and the IC50 (second compound 1 µM) was 0.0551 µM. For the same molecule, the viability, T/C (second compound 0.00316 µM, first compound 0.00316 µM) was 94.2%, the viability, T/C (second compound 0.00316 µM, first compound 0.01 µM) was 73.2% and the viability, T/C [1] was 86.9%. For the same molecule, the viability, T/C [2] was 75.2%, the viability, T/C [3] was 80.9% and the viability, T/C [4] was 70.5%. For the same molecule, the viability, T/C (second compound 0.01 µM, first compound 0.00316 µM) was 94.9%, the viability, T/C (second compound 0.01 µM, first compound 0.01 µM) was 74.8% and the viability, T/C [7] was 71.4%. The viability, T/C [8] was 93.2%, the viability, T/C [9] was 69.5% and the viability, T/C [10] was 67.7%. For the same molecule, the viability, T/C (second compound 0.0316 µM, first compound 0.00316 µM) was 77.6%, the viability, T/C (second compound 0.0316 µM, first compound 0.01 µM) was 81.3% and the viability, T/C [13] was 79.2%. For the same molecule, the viability, T/C [14] was 86.8%, the viability, T/C [15] was 63.4% and the viability, T/C [16] was 52.3%. For the same molecule, the viability, T/C (second compound 0.1 µM, first compound 0.00316 µM) was 62.7%, the viability, T/C (second compound 0.1 µM, first compound 0.01 µM) was 64.6% and the viability, T/C [19] was 69.8%. The viability, T/C [20] was 65.1%, the viability, T/C [21] was 47.3% and the viability, T/C [22] was 51.3%. For the same molecule, the viability, T/C (second compound 0.316 µM, first compound 0.00316 µM) was 62.7%, the viability, T/C (second compound 0.316 µM, first compound 0.01 µM) was 54.9% and the viability, T/C [25] was 57.4%. It also gave a viability, T/C [26] of 47.5%, a viability, T/C [27] of 48.6% and a viability, T/C [28] of 42.5%. It also gave a viability, T/C (second compound 1 µM, first compound 0.00316 µM) of 59.4%, a viability, T/C (second compound 1 µM, first compound 0.01 µM) of 52.2% and a viability, T/C [31] of 54.2%. It also gave a viability, T/C [32] of 49.3%, a viability, T/C [33] of 35.5% and a viability, T/C [34] of 26%.
With `Cn1ncc(Cl)c1-c1cc(C(=O)NC(CN)Cc2cccc(F)c2)sc1Cl` (stereo not drawn) + CC(Nc1ccc2c(c1)OCCn1cc(N3C(=O)OCC3C(F)F)nc1-2)C(N)=O the IC50 (second compound 0.00316 µM) was > 10 µM, the IC50 (second compound 0.01 µM) was > 10 µM and the IC50 (second compound 0.0316 µM) was > 10 µM. The IC50 (second compound 0.1 µM) was > 10 µM, the IC50 (second compound 0.316 µM) was > 10 µM and the IC50 (second compound 1 µM) was 4.19 µM. For the same molecule, the viability, T/C [1] was 102%, the viability, T/C [2] was 94.4% and the viability, T/C [3] was 86.6%. For the same molecule, the viability, T/C [4] was 75%, the viability, T/C [5] was 71% and the viability, T/C [6] was 61.3%. The viability, T/C [7] was 92.3%, the viability, T/C [8] was 93.3% and the viability, T/C [9] was 90.8%. It also gave a viability, T/C [10] of 67.1%, a viability, T/C [11] of 67.8% and a viability, T/C [12] of 71.3%. For the same molecule, the viability, T/C [13] was 91.2%, the viability, T/C [14] was 98% and the viability, T/C [15] was 75.2%. For the same molecule, the viability, T/C [16] was 83.2%, the viability, T/C [17] was 67.4% and the viability, T/C [18] was 55.8%. For the same molecule, the viability, T/C [19] was 83.5%, the viability, T/C [20] was 72.5% and the viability, T/C [21] was 87.7%. It also gave a viability, T/C [22] of 65%, a viability, T/C [23] of 55.8% and a viability, T/C [24] of 57.8%. It also gave a viability, T/C [25] of 68%, a viability, T/C [26] of 66.9% and a viability, T/C [27] of 59.2%. The viability, T/C [28] was 67.8%, the viability, T/C [29] was 59.9% and the viability, T/C [30] was 45.9%. The viability, T/C [31] was 63.1%, the viability, T/C [32] was 49.3% and the viability, T/C [33] was 53.9%. For the same molecule, the viability, T/C [34] was 68.1%, the viability, T/C [35] was 53.9% and the viability, T/C [36] was 38.5%.
In the case of `Cn1nccc1Nc1nccc(-c2ccn(C(CO)c3ccc(Cl)c(F)c3)c(=O)c2)n1` (stereo not drawn) + CC(Nc1ccc2c(c1)OCCn1cc(N3C(=O)OCC3C(F)F)nc1-2)C(N)=O, the IC50 (second compound 0.00316 µM) is reported as > 10 µM, the IC50 (second compound 0.01 µM) is reported as > 10 µM and the IC50 (second compound 0.0316 µM) is reported as > 10 µM. For the same molecule, the IC50 (second compound 0.1 µM) was > 10 µM, the IC50 (second compound 0.316 µM) was > 10 µM and the IC50 (second compound 1 µM) was 0.0465 µM. The viability, T/C [1] was 100%, the viability, T/C [2] was 89.8% and the viability, T/C [3] was 105%. It also gave a viability, T/C [4] of 71.5%, a viability, T/C [5] of 108% and a viability, T/C [6] of 101%. The viability, T/C [7] was 107%, the viability, T/C [8] was 67.5% and the viability, T/C [9] was 81%. For the same molecule, the viability, T/C [10] was 82.2%, the viability, T/C [11] was 91.8% and the viability, T/C [12] was 102%. It also gave a viability, T/C [13] of 80.8%, a viability, T/C [14] of 101% and a viability, T/C [15] of 76.8%. It also gave a viability, T/C [16] of 92%, a viability, T/C [17] of 70.9% and a viability, T/C [18] of 85.3%. For the same molecule, the viability, T/C [19] was 72.3%, the viability, T/C [20] was 65.6% and the viability, T/C [21] was 79.3%. The viability, T/C [22] was 78.4%, the viability, T/C [23] was 72.9% and the viability, T/C [24] was 70.3%. For the same molecule, the viability, T/C [25] was 62.5%, the viability, T/C [26] was 68% and the viability, T/C [27] was 60.2%. For the same molecule, the viability, T/C [28] was 78%, the viability, T/C [29] was 63.1% and the viability, T/C [30] was 46.6%. The viability, T/C [31] was 49.6%, the viability, T/C [32] was 48.3% and the viability, T/C [33] was 48.4%. For the same molecule, the viability, T/C [34] was 41.6%, the viability, T/C [35] was 32.3% and the viability, T/C [36] was 31.2%.
